For six compounds, Ki results are on record in patent US11034698B2, “Pyrazolo[ 1,5a]pyrimidine derivatives as IRAK4 modulators” (priority 2017, dated 2021).

The assay concerns the target human IRAK4 (Homo sapiens (Human), UniProt Q9NWZ3). Put plainly: IRAK4 kinase inhibition, Transcreener fluorescence polarization (ADP). The class given is biochemical. The note with it: recombinant full-length His6-IRAK4 1.25 nM; 125 uM ATP; 125 uM peptide; 90 min; ATP Km 642 uM; read-out: IRAK4 Ki. The method in brief: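 The enzyme was full-length human IRAK4 with an N-terminal His6 tag, expressed in insect cells. Kinase activity was read as ADP product by Transcreener fluorescence polarization.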

Sequence of human IRAK4 (Q9NWZ3 whole entry): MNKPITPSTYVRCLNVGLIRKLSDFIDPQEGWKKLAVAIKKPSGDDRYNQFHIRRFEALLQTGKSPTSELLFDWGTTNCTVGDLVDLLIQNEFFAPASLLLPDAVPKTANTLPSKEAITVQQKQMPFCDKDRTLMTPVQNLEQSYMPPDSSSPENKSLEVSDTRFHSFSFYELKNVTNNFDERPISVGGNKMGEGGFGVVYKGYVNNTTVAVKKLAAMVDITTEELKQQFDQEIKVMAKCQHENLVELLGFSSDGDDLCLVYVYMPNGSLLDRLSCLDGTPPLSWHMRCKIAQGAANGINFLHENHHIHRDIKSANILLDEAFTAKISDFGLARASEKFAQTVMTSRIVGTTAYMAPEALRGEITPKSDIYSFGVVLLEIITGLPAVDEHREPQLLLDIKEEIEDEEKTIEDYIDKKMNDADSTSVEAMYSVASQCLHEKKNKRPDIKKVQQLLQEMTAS

For `CC(C)(O)[C@H](F)CN1Cc2cc(NC(=O)c3cnn4cccnc34)c(C3COC3)cc2C1=O` [Example 147, N-[2-[(2R)-2-Fluoro-3-hydroxy-3-methyl-butyl]-6-(oxetan-3-yl)-1-oxo-isoindolin-5-yl]pyrazolo[1,5-a]pyrimidine-3-carboxamide], the Ki was determined as 48 nM.

In the case of `CC(C)(O)c1cc2c(cc1NC(=O)c1cnn3cccnc13)CN(C[C@@H](F)C(C)(C)O)C2=O` [Example 148, (R)—N-(2-(2-Fluoro-3-hydroxy-3-methylbutyl)-6-(2-hydroxypropan-2-yl)-1-oxoisoindolin-5-yl)pyrazolo[1,5-a]pyrimidine-3-carboxamide], the Ki amounted to 16 nM. On to `CC(C)N1Cc2cc(NC(=O)c3cnn4cccnc34)c(N(C)C)c(CO)c2C1=O` [Example 151, N-(6-(Dimethylamino)-7-(hydroxymethyl)-2-isopropyl-1-oxoisoindolin-5-yl)pyrazolo[1,5-a]pyrimidine-3-carboxamide], for which the Ki worked out at 8.2 nM. Take `Cn1ccc2cc(NC(=O)c3cnn4cccnc34)c(N3CCOCC3)cc2c1=O` [Example 152, N-(2-Methyl-7-morpholino-1-oxo-1,2-dihydroisoquinolin-6-yl)pyrazolo[1,5-a]pyrimidine-3-carboxamide]: the Ki is 210 nM. With `O=C(Nc1cc2c(cc1N1CCOCC1)OCCS2)c1cnn2cccnc12` [Example 153, N-(7-Morpholino-2,3-dihydro-1,4-benzoxathiin-6-yl)pyrazolo[1,5-a]pyrimidine-3-carboxamide], the Ki worked out at 280 nM.

With `CN(C)c1cc2c(cc1NC(=O)c1cnn3cccnc13)CC(C)(C)[C@H]2O` [Example 156, N-[(1R)-6-(Dimethylamino)-1-hydroxy-2,2-dimethyl-indan-5-yl]pyrazolo[1,5-a]pyrimidine-3-carboxamide], the Ki is 16 nM.
